System: Cochliobolus miyabeanus
Test: Activity against brown spot of rice caused by Cochliobolus miyabeanus, protective application
Format: in vivo
Conditions: individual active compound, inoculated next day, assessed after six days
Description: The active compounds, separately or jointly, were prepared as a stock solution with 0.25% by weight of active compound in acetone or DMSO. 1% by weight of the emulsifier Uniperol® EL (wetting agent having emulsifying and dispersing action based on ethoxylated alkylphenols) was added to this solution, and the solution was diluted with water to the desired concentration.
Use Example—Activity Against Brown Spot of Rice Caused by Cochliobolus Miyabeanus, Protective Application
Leaves of potted rice seedlings of the cultivar “Tai-Nong 67” were sprayed to runoff point with an aqueous suspension of the concentration of active compound stated below. The next day, the plants were inoculated with an aqueous spore suspension of Cochliobolus miyabeanus. The test plants were then placed in climatized chambers at 22-24° C. and 95-99% relative atmospheric humidity for six days. The extent of the development of the infection on the leaves was then determined visually.
Evaluation was carried out by determining the percentage of infected plants. These percentages were converted into efficacies.
The efficacy (E) is calculated as follows using Abbot's formula: E=(1−α/β)·100 • α corresponds to the fungicidal infection of the treated plants in % and • β corresponds to the fungicidal infection of the untreated (control) plants in %
An efficacy of 0 means that the infection level of the treated plants corresponds to that of the untreated control plants; an efficacy of 100 means that the treated plants are not infected.
The expected efficacies of mixtures of active compounds are determined using Colby's formula (R.S. Colby, Weeds, 15, 20-22, 1967) and compared with the observed efficacies.
Colby's Formula: E=x+y−x·y/100 • E expected efficacy, expressed in % of the untreated control, when using the mixture of the active compounds A and B at the concentrations a and b • x efficacy, expressed in % of the untreated control, when using the active compound A at the concentration a • y efficacy, expressed in % of the untreated control, when using the active compound B at the concentration b

SMILES	Efficacy in % of the untreated control (4 ppm in the spray liquor)	Efficacy in % of the untreated control (1 ppm in the spray liquor)
CC1CCN(c2c(-c3c(F)cccc3Cl)c(Cl)nc3ncnn23)CC1 [A]	44%	–
C[C@H](Nc1c(-c2c(F)cc(F)cc2F)c(Cl)nc2ncnn12)C(F)(F)F [B]	44%	–
CC1CCN(c2c(-c3c(F)cc(F)cc3F)c(Cl)nc3ncnn23)CC1 [I, 5-chloro-7-(4-methylpiperidin-1-yl)-6-(2,4,6-trifluorophenyl)-[1,2,4]triazolo[1,5-a]pyrimidine]	33%	–
CC1=C(C(=O)Nc2ccccc2)SCCO1 [II (carboxin), N-phenyl-2-methyl-5,6-dihydro-[1,4]oxathiine-3-carboxamide]	0%	0%
